Laboratory results from patent US20240124483A1, “Methods for the Treatment of Fibrotic Disease” (SHY Therapeutics, LLC, priority 2021, published 2024).
Where two headings read alike, the source gives them in different places.

Key:
JNK = JNK Activation Assay in Panc-1 (western blot); type: cell-based, Human; set-up: key: Y = yes; N = No; conditions: at 10 μM
Procedure: (§1) Cell lines: Human tumor-derived pancreatic cancer cell line Panc-1 and mouse muscle myoblast C2C12 were purchased from American Type Culture Collection and grown in complete DMEM-High Glucose, supplemented with penicillin (100 U/mL), streptomycin (100 μg/mL), and 10% heat-inactivated FBS at 37° C. in a humidified incubator with 5% CO2.
(§2) Method: Cells were plated at 350000 cells/well density in a 12-well plate, allowed 3 hours to adhere to the plate, then starved in the appropriate medium in the presence of 0.5% FBS overnight. The small molecules to be tested were added to the cells in the final concentration of 10 μM in the presence of 0.3% DMSO for 3 hours incubation at 37° C. For IC50 value determination, serial dilutions of compounds were added to cells under the same conditions. Next, Panc-1 cells were stimulated with 10 ng/ml TGF-b1 for 1 hour, and C2C12 cells were stimulated with 10 ng/ml TGF-b1 for 20 minutes (recombinant human TGF-b1, R&D Systems). After stimulation cells were lysed with lysis buffer containing 1% Triton X-100, EDTA, and Halt™ Protease & Phosphatase Inhibitor Cocktail (Thermo Scientific). Protein concentration was assessed by BCA protein assay (Thermo Scientific). Phosphorylation level of JNK was determined by western blot.
(§3) Western blot protocol: Equal amounts of protein (15-50 μg) were separated by SDS-PAGE and transferred to nitrocellulose membranes (Invitrogen by Thermo Fisher Scientific). The membrane was stained with Ponceau S Stain (Boston BioProducts) to verify uniform protein loading. Membranes were blocked with 10% milk and phosphorylation levels of Smad2, Smad3, INK and p38 were assessed by incubating overnight at 4° C. with the following antibody: Phospho-SAPK/JNK (Thr183/Tyr185), from Cell Signaling Technology. Then the membranes were incubated with HRP-conjugated secondary antibody (Jackson Immunoresearch, West Grove, PA). Bands were incubated in Amersham ECL Prime Western Blotting Detection Reagent (GE Healthcare) and visualized using the ChemiDoc MP imaging system (Bio-Rad).

MAPK p38 = MAPK p38 Activation Assay in Panc-1 (western blot); type: cell-based, Human; set-up: key: Y = yes; N = No; conditions: at 10 μM
Procedure: as §1
as §2, with “MAPK p38” for “JNK”
as §3, with “Smad2/Smad3” for “Smad2, Smad3, INK and p38”, “Phospho-p38 MAPK (Thr180/Tyr182),” for “Phospho-SAPK/JNK (Thr183/Tyr185),”

KRas wild type = KRas wild type (Homo sapiens (Human), UniProt P01116); experiment: Ras GTP Binding Domain Inhibition Assay, KRas wild type
Sequence of KRas wild type (P01116 other isoform, or with tags, fused parts or gaps): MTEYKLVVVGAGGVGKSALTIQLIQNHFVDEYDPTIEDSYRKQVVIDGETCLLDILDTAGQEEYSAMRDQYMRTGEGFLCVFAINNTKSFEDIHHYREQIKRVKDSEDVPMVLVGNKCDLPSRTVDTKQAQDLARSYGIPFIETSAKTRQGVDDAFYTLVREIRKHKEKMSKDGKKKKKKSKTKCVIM
Procedure: (§4) A Ras Superfamily Activity Assay (as disclosed in International Application No. PCT/US2018/038613, filed Jun. 20, 2018, which is incorporated by reference in its entirety) was used as a specific assay to evaluate compounds against the following for the following Ras Superfamily proteins: KRas wild type, KRas Q61H mutant, KRas G12C mutant, KRas G12D mutant, Rac-1, and Rho-A.
(§5) Buffer-I: • 25 mM Tris-HCl, pH 7.4 • 27 mM KCl • 137 mM NaCl • 1 mM MgCl2 • 1 mM DTT
(§6) Buffer-II: • 50 mM Tris-HCl, pH 7.0 • 1 mM MgCl2 • 1 mM DTT
(§7) The small GTPases proteins: KRas wild type. KRas Q61H mutant, KRas G12C mutant, KRas G12D mutants, Rac-1, and Rho-A were expressed as His-tagged proteins. In addition, the Guanosine nucleotide Exchange Factor (GEF) Sos protein (residues 556-1049) was expressed as a His-tagged protein. In cells, the guanine nucleotide exchange factor Sos protein promotes activation of Ras proteins by stimulating an exchange of GDP for GTP. The inclusion of Sos to the Ras GTP binding domain inhibition assay may be considered as an alternative representation of physiological cellular conditions for evaluating the inhibitory activity of some of the tested small molecules.
(§8) For the assay, all purified small GTPases proteins were diluted in Buffer-I or Buffer-II to a final concentration of 10-30 μg/mL. 200 μL of each diluted protein was added to a nickel-coated 96-well plate and incubated overnight at 4° C. Then the protein solution was discarded and 200 μL of Buffer-I or Buffer-II was added to each well in the presence of 1% DMSO. Compounds to be tested were added to the protein-coated wells at final concentration of 20 μM, and incubated for 3 hours at room temperature with and without 10-30 μg/mL of Sos added to the final hour of the incubation. When performing IC50 measurements a serial dilution of all tested concentrations was added. Then Cy3-GTP or Cy5-GTP was added to each well to a final concentration of 100 nM. The labeled GTP was incubated for 45 minutes at room temperature. Following GTP incubation, wells were washed 3× in Buffer-I or Buffer-II and 200 μL of Buffer-I or Buffer-II was added to each well. Following washes, the amount of bound labeled-GTP was measured using a SpectraMax M3 (Molecular Devices).

KRas G12D mutant = KRas G12D mutant (Homo sapiens (Human), UniProt P01116, G12D); experiment: Ras GTP Binding Domain Inhibition Assay, KRas G12D mutant; conditions: for inhibition at 20 µM: Table 7; for KRas G12D mutant + SOS: % inh. / KRas G12D mutant: % inh.: 20 uM, Table 8
Sequence of KRas G12D mutant (P01116 other isoform, or with tags, fused parts or gaps G12D): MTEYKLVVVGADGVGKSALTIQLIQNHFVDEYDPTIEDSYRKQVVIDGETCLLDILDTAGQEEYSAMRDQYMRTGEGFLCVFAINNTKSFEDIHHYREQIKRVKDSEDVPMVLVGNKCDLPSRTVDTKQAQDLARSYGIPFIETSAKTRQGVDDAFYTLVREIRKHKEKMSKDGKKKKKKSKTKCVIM
Procedure: as §4, §5, §6, §7, §8

Rho-A = Rho-A (Homo sapiens (Human), UniProt P61586); experiment: Ras GTP Binding Domain Inhibition Assay, Rho-A
Sequence of Rho-A (P61586 whole entry, species assumed, the tested form may be a part): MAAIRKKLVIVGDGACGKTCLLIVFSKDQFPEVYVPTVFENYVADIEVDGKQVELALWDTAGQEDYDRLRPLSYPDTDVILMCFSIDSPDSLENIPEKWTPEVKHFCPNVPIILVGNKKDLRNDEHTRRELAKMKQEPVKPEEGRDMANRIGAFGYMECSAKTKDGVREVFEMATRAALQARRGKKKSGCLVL
Procedure: as §4, §5, §6, §7, §8

[1] = + SOS, read-out: KRas wild type + SOS: % inh.
[2] = without SOS, read-out: KRas wild type: % inh.
[3] = + SOS, read-out: KRas G12D mutant + SOS: % inh.
[4] = without SOS, read-out: KRas G12D mutant: % inh.
[5] = + SOS, read-out: Rho-A + SOS: % inh.
[6] = without SOS, read-out: Rho-A: % inh.

| Compound | Activation of JNK in PANC-1 (JNK) | Activation of MAPK p38 in PANC-1 (MAPK p38) | inhibition at 20 µM (KRas wild type; [1]) [%] | inhibition at 20 µM (KRas wild type; [2]) [%] | inhibition at 20 µM (KRas G12D mutant; [3]) [%] | KRas G12D mutant + SOS: % inh. (KRas G12D mutant; + SOS) | inhibition at 20 µM (KRas G12D mutant; [4]) [%] | KRas G12D mutant: % inh. (KRas G12D mutant; without SOS) | inhibition at 20 µM (Rho-A; [5]) [%] | inhibition at 20 µM (Rho-A; [6]) [%] |
| --- | --- | --- | --- | --- | --- | --- | --- | --- | --- | --- |
| CO[C@H]1CC[C@@H](Nc2nc(-c3nccn3C)nc3sc(-c4ccn(C)n4)c(-c4ccccc4)c23)C1 (racemic) [Compound 5, rac-N-((1R,3S)-3-Methoxycyclopentyl)-2-(1-methyl-1H-imidazol-2-yl)-6-(1-methyl-1H-pyrazol-3-yl)-5-phenylthieno[2,3-d]pyrimidin-4-amine] | Y | Y | 76 to 100 | 26 to 45 | 46 to 75 | C (C = 46-75% inhibition) | 1 to 25 | A (A = 1-25% inhibition) | 76 to 100 | 46 to 75 |
| COc1cccc(-c2sc3nc(-c4nccn4C)nc(NC4CCC(OC)C4)c3c2C)c1F (racemic) [Compound 10, rac-6-(2-Fluoro-3-methoxyphenyl)-N-((1R,3S)-3-methoxycyclopentyl)-5-methyl-2-(1-methyl-1H-imidazol-2-yl)thieno[2,3-d]pyrimidin-4-amine and rac-6-(2-Fluoro-3-methoxyphenyl)-N-((1R,3R)-3-methoxycyclopentyl)-5-methyl-2-(1-methyl-1H-imidazol-2-yl)thieno[2,3-d]pyrimidin-4-amine] | Y | Y | 46 to 75 | 46 to 75 | 46 to 75 | C (C = 46-75% inhibition) | 76 to 100 | D (D = 76-100% inhibition) | 76 to 100 | 76 to 100 |
| CO[C@H]1CC[C@@H](Nc2nc(-c3nccn3C)nc3sc(-c4ccn(C(C)C)n4)c(C)c23)C1 (racemic) [Compound 12, rac-6-(1-Isopropyl-1H-pyrazol-3-yl)-N-((1R,3S)-3-methoxycyclopentyl)-5-methyl-2-(1-methyl-1H-imidazol-2-yl)thieno[2,3-d]pyrimidin-4-amine] | Y | Y | 76 to 100 | 76 to 100 | 46 to 75 | C (C = 46-75% inhibition) | 46 to 75 | C (C = 46-75% inhibition) | 76 to 100 | 76 to 100 |
| COC1CCCN(c2nc(-c3nccn3C)nc3sc(-c4ccn(C(C)C)n4)c(C)c23)C1 (racemic) [Compound 14, rac-6-(1-Isopropyl-1H-pyrazol-3-yl)-4-(3-methoxypiperidin-1-yl)-5-methyl-2-(1-methyl-1H-imidazol-2-yl)thieno[2,3-d]pyrimidine] | Y | Y | 76 to 100 | 0 |  |  |  |  |  | 26 to 45 |
| COCC1CN(c2nc(-c3nccn3C)nc3sc(-c4ccn(C(C)C)n4)c(C)c23)CCO1 (racemic) [Compound 15, 4-(6-(1-Isopropyl-1H-pyrazol-3-yl)-5-methyl-2-(1-methyl-1H-imidazol-2-yl)thieno[2,3-d]pyrimidin-4-yl)-2-(methoxymethyl)morpholine] | Y | Y | 76 to 100 | 76 to 100 | 76 to 100 | D (D = 76-100% inhibition) | 76 to 100 | D (D = 76-100% inhibition) |  | 76 to 100 |
